In patent publication US8008288B2, “Anti-inflammatory A-aminocyclolactam compounds” (Cambridge Enterprise Limited, priority 2004, dated 2011):
One block for each compound: values may come before it.

How the values were obtained:
[1] = test system: MCP-1 induced leukocyte migration (THP-1 cells); assay: Inhibition of chemokine (MCP-1) induced leukocyte migration in vitro, transwell assay; type: cell-based, human
Experimental: In principle, this assay consists of two chambers separated by a porous membrane. The chemoattractant is placed in the lower compartment and the cells are placed in the upper compartment. After incubation for a period at 37° C. the cells move towards the chemoattractant, and the number of cells in the lower compartment is proportional to the chemoattractant activity (relative to a series of controls).
This assay can be used with a range of different leukocyte populations. For example, freshly prepared human peripheral blood leukocytes may used. Alternatively, leukocyte subsets may be prepared, including polymorphonuclear cells or lymphocytes or monocytes using methods well known to those skilled in the art such as density gradient centrifugation or magnetic bead separations. Alternatively; immortal cell lines which have been extensively validated as models of human peripheral blood leukocytes may be used, including, but not limited to THP-1 cells as a model of monocytes or Jurkat cells as model of naïve T cells.
The THP-1 cell line (European Cell culture Collection) were used as the leukocyte cell population.
The following procedure is used for testing the invention compounds for MCP-1 induced leukocyte migration:
First, the cell suspension to be placed in the upper compartment is prepared. […]

[2] = type: in vitro ADME, human
From the text: As an approach to identifying such stable analogs, various derivatives of (S)-3-(undec-10-enoyl)-aminoglutarimide have been tested for their stability in serum.

[3] = cited from earlier work

stability in human serum ([2]; human, 7 days): at least 7 days
Compound: C=CCCCCCCCCC(=O)[C@@H]1CCCNC1=O [(S)-3-(undec-10-enoyl)-tetrahydropyridin-2-one]
potency compared with the parental molecule ([1]; parental molecule (S)-3-(undec-10-enoyl)-aminoglutarimide): considerably reduced potency

Compound: c(DCys-DGln-DIle-DTrp-DLys-DGln-DLys-DPro-DAsp-DLeu-DCys)-NH2 [NR58-3.14.3]
half-life period of clearance from blood plasma ([3]; after intravenous injection): less than 30 minutes | oral bioavailability ([3]; in vivo, po): not orally bioavailable

Compound: C=CCCCCCCCCC(=O)N[C@H]1CCC(=O)NC1=O [NR58,4, (S)-3-(undec-10-enoyl)-aminoglutarimide]
enzymatic ring opening of the aminoglutarimide ring in serum [2]: susceptible to enzymatic ring opening in serum

Compound: O=C1NCCCC[C@@H]1NC(=O)C12CC3CC(CC(C3)C1)C2 [(S)-3-(adamantane-1-carbonylamino)azepin-2-one]
potency in vitro as broad-spectrum chemokine inhibitor (BSCI) ([1]; in vitro): sub-nanomolar
